Experimental data: patent US20030199671A1, “Binding molecules for Fc-region polypeptides” (priority 2001, published 2003)
Positions of bridges follow the written chain, without caps; N, C: chain ends. Residues, ends and D or L forms follow the SMILES beside them. *: point of attachment. 5FAM = O=C1OC2(c3ccc(O)cc3Oc3cc(O)ccc32)c2ccc(C(=O)*)cc21

How the values were obtained:
[1] = biological target: T1, human plasma IgG2 (Homo sapiens, UniProt P01859); test: Fluorescence anisotropy binding, fluorescein-labeled peptide; conditions: 2 nM labeled peptide; PBS with 0.01% Tween 20
T1 construct: the individual human plasma IgG isoforms: IgG1, IgG2, IgG3, or IgG4; purchased Calbiochem; host or cells: human plasma
T1 sequence (P01859 1-326 isoform P01859-1): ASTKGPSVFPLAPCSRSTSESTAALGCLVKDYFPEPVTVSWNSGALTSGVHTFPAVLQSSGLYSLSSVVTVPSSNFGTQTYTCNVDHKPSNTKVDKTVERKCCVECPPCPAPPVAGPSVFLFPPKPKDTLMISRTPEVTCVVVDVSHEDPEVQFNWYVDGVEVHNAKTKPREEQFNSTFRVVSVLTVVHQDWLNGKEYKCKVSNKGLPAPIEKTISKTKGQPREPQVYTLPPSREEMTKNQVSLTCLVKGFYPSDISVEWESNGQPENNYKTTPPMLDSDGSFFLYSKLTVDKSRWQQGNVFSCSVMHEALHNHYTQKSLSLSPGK
Experimental: (§1) All measurements were performed in 384 well microplates with 20 nM fluorescein-labeled peptide and various concentrations of the IgG isoform in a volume of between 10 and 20 μl using a Tecan Polarion fluorescence polarization plate reader. All binding buffers included 0.01% (v/v) Tween 20 to prevent peptide adsorption to the microplate. The binding mixture was equilibrated for 10 minutes in the microplate at 30° C. prior to performing the measurement.
(§2) Peptides were synthesized, fluorescein-labeled and HPLC purified as described above. Binding studies were performed using either a mixture of human plasma IgG isoforms (the Fc protein) or the individual human plasma IgG isoforms: IgG1, IgG2, IgG3, or IgG4.
(§3) Measurements were performed in 384-well microplates with 2 nM fluorescein-labeled peptide and a varied concentration of the IgG isoform target in a volume of 10 μl using a Tecan Polarion fluorescence polarization plate reader. The Fc binding buffer was 50 mM Tris-HCl, 200 mM NaCl, pH 8.0, 0.01% Tween 20. The IgG binding buffer was PBS with 0.01% Tween 20. The binding mixtures were equilibrated for 10 minutes in the microplate at 30° C. prior to performing the measurements.

[2] = biological target: T2, human plasma IgG1 (Homo sapiens, UniProt P01857); test: as above; conditions: 2 nM labeled peptide; PBS with 0.01% Tween 20
T2 construct: the individual human plasma IgG isoforms: IgG1, IgG2, IgG3, or IgG4; purchased Calbiochem; host or cells: human plasma
T2 sequence (P01857 1-330 isoform P01857-1): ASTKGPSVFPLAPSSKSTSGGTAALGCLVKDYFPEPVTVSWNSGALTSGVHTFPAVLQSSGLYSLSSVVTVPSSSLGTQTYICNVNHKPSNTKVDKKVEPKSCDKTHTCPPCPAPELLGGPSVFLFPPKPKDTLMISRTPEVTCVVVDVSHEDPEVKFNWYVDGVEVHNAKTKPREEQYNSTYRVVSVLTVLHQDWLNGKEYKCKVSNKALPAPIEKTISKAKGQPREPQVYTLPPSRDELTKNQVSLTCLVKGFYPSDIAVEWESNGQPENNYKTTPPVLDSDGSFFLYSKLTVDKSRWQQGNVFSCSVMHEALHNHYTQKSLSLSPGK
Experimental: as §1, §2, §3

[3] = biological target: T3, human plasma IgG4 (Homo sapiens, UniProt P01861); test: as above; conditions: 2 nM labeled peptide; PBS with 0.01% Tween 20
T3 construct: the individual human plasma IgG isoforms: IgG1, IgG2, IgG3, or IgG4; purchased Calbiochem; host or cells: human plasma
T3 sequence (P01861 1-327 isoform P01861-1): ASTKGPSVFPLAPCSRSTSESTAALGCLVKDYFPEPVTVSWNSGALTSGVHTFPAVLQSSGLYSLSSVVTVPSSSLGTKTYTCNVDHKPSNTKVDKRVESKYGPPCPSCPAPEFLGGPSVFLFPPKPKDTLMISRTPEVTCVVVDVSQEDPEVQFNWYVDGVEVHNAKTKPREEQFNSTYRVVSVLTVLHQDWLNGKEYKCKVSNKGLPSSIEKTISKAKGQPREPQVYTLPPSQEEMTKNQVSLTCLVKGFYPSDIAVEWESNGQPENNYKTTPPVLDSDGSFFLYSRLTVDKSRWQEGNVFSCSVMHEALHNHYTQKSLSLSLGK
Experimental: (§4) Peptides were synthesized by BACHEM Bioscience, Inc., (King of Prussia, Pa.), fluorescein labeled and purified by HPLC. Binding studies were performed using either a mixture of human plasma IgG isoforms (the Fc target) or the individual human plasma IgG isoforms: IgG1, IgG2, IgG3, or IgG4. All Fc target proteins were obtained from Calbiochem.
as §1, §2, §3

[4] = biological target: Fc (mixture of human plasma IgG isoforms); test: as above; conditions: 2 nM labeled peptide; 50 mM Tris-HCl, 200 mM NaCl, pH 8.0, 0.01% Tween 20
Experimental: as §4, §1, §2, §3

[5] = biological target: T4, human plasma IgG3 (Homo sapiens, UniProt P01860); test: as above; conditions: 2 nM labeled peptide; PBS with 0.01% Tween 20
T4 construct: the individual human plasma IgG isoforms: IgG1, IgG2, IgG3, or IgG4; purchased Calbiochem; host or cells: human plasma
T4 sequence (P01860 1-377 isoform P01860-1): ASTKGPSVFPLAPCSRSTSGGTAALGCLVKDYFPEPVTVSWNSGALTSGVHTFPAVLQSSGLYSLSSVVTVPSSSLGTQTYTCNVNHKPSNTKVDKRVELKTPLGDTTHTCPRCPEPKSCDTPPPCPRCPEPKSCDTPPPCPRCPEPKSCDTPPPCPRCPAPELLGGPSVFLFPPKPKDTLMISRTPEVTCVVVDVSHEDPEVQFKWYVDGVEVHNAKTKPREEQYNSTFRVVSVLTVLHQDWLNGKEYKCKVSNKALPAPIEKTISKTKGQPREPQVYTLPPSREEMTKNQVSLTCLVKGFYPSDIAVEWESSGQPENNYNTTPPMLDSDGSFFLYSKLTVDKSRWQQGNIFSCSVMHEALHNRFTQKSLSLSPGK
Experimental: as §4, §1, §2, §3

[6] = Solubility in aqueous coupling buffer; assay type: physicochemical; conditions: aqueous coupling conditions
Description: The varying degree of binding may be due to, in part, to lower coupling efficiencies as a result of varying degrees of solubility in aqueous coupling conditions. […] However, coupling efficiencies of all nine DX253 variants monitored by rp-HPLC was high and averaged>85%. Actual ligand densities were not determined.

[7] = biological target: IgG4 (Homo sapiens, UniProt P01861); assay type: binding; set-up: all human subtypes derived from myeloma patients; purchased Calbiochem 400126; host or cells: myeloma patients; conditions: peptide immobilized on NHS activated sepharose 4 fast flow, target ligand density 2.0 μmole/ml; batch filterplate; hIgG4
IgG4, sequence (P01861 1-327 isoform P01861-1): as the sequence (P01861 1-327 isoform P01861-1) above
Summary of the method: (§5)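 Read-out is A280 of unbound IgG (1.4 mg/ml extinction coefficient), with percent bound derived against non-filtered or negative controls. Targets were incubated with immobilized peptides in PBST or TBST for 1-1.5 h at room temperature. Hydrolyzed Sepharose and immobilized Protein A serve as negative and positive controls.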

[8] = biological target: IgG3 (Homo sapiens, UniProt P01860); assay type: binding; set-up: all human subtypes derived from myeloma patients; purchased Calbiochem 400124; host or cells: myeloma patients; conditions: peptide immobilized on NHS activated sepharose 4 fast flow, target ligand density 2.0 μmole/ml; batch filterplate; hIgG3
IgG3, sequence (P01860 1-377 isoform P01860-1): as the sequence (P01860 1-377 isoform P01860-1) above
Summary of the method: (§6)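 Steps: dilute IgG in PBST or TBST; incubate with immobilized peptide 1-1.5 h, RT; collect unbound by centrifugation; measure A280; wash three times; elute with 0.1 M sodium bicarbonate pH 8.5 and/or 0.1 M sodium citrate pH 4.0 for 30-60 min and quantitate.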

[9] = test system: human IgG; assay type: binding; conditions: batch filterplate; for Batch Binding (% Capture of Total Load) hIgG: peptide immobilized on NHS activated sepharose 4 fast flow, target ligand density 2.0 μmole/ml
Summary of the method: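 Static binding, peptide resin + IgG, 1-1.5 h RT with shaking, PBST pH 7.2 or TBST pH 7.5. Flow-through read at A280 vs buffer blank; % bound = control minus unbound. Elution at pH 8.5 bicarbonate and/or pH 4.0 citrate, 30-60 min.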

[10] = biological target: T5, human IgG1 (Homo sapiens, UniProt P01857); assay type: binding; conditions: peptide immobilized on NHS activated sepharose 4 fast flow, target ligand density 2.0 μmole/ml; batch filterplate; hIgG1
T5 construct: all human subtypes derived from myeloma patients; purchased Calbiochem 400120; host or cells: myeloma patients
T5 sequence (P01857 1-330 isoform P01857-1): as the sequence (P01857 1-330 isoform P01857-1) above
Summary of the method: as §6

[11] = biological target: T6, human IgG2 (Homo sapiens, UniProt P01859); assay type: binding; conditions: peptide immobilized on NHS activated sepharose 4 fast flow, target ligand density 2.0 μmole/ml; batch filterplate; hIgG2
T6 construct: all human subtypes derived from myeloma patients; purchased Calbiochem 400122; host or cells: myeloma patients
T6 sequence (P01859 1-326 isoform P01859-1): as the sequence (P01859 1-326 isoform P01859-1) above
Summary of the method: as §5

[12] = cited from earlier work

Row | Solubility in aqueous coupling buffer [6] | Batch Binding (% Capture of Total Load) hIgG4 [7] | Batch Binding (% Capture of Total Load) hIgG3 [8] | Batch Binding (% Capture of Total Load) hIgG [9] | Batch Binding (% Capture of Total Load) hIgG1 [10] | Batch Binding (% Capture of Total Load) hIgG2 [11] | Compound | other results
1 | – | – | – | – | – | – | CC(=O)N[C@@H](C)C(=O)NCC(=O)N[C@@H](CCCCN)C(=O)N[C@@H](Cc1ccc(O)cc1)C(=O)N[C@@H](Cc1c[nH]c2ccccc12)C(=O)N[C@H]1CSSC[C@@H](C(=O)N[C@@H](CCCCN)C(=O)N[C@H](C(=O)NCC(=O)N[C@H](C(=O)N2CCC[C@H]2C(=O)NCC(=O)N2CCC[C@H]2C(=O)N[C@@H](CCC(=O)O)C(=O)NCC(=O)NCC(=O)NCC(=O)N[C@@H](CCCCNC(=O)c2ccc3c(c2)C(=O)OC32c3ccc(O)cc3Oc3cc(O)ccc32)C(N)=O)[C@@H](C)O)[C@@H](C)O)NC(=O)[C@H](CCC(N)=O)NC(=O)[C@H](CC(C)C)NC(=O)CNC(=O)[C@H](Cc2c[nH]c3ccccc23)NC(=O)[C@H](Cc2ccccc2)NC(=O)[C@H](CO)NC1=O [DX300] (Ac-AGKYWCSFWGLQCKTGTPGPEGGGK(5FAM)-NH2; disulfide 6-13) | KD (μM) IgG2 [1]: No binding; KD (μM) IgG1 [2]: No binding; KD (μM) IgG4 [3]: No binding; KD (μM) Fc [4]: No binding
2 | – | – | – | – | – | – | CC(=O)NCC(=O)N[C@@H](CC(=O)O)C(=O)N[C@@H](CCCNC(=N)N)C(=O)N[C@@H](CCCNC(=N)N)C(=O)N[C@@H](C)C(=O)N[C@H]1CSSC[C@@H](C(=O)N[C@@H](C)C(=O)NCC(=O)N[C@@H](Cc2c[nH]cn2)C(=O)N[C@@H](CCC(=O)O)C(=O)N2CCC[C@H]2C(=O)NCC(=O)N2CCC[C@H]2C(=O)N[C@@H](CCC(=O)O)C(=O)NCC(=O)NCC(=O)NCC(=O)N[C@@H](CCCCNC(=O)c2ccc3c(c2)C(=O)OC32c3ccc(O)cc3Oc3cc(O)ccc32)C(N)=O)NC(=O)[C@H](Cc2c[nH]c3ccccc23)NC(=O)[C@H](C(C)C)NC(=O)[C@H](CC(C)C)NC(=O)[C@H](C)NC(=O)CNC(=O)[C@H](CO)NC(=O)[C@H](Cc2c[nH]c3ccccc23)NC(=O)[C@H](CC(=O)O)NC(=O)[C@H](CCCNC(=N)N)NC(=O)[C@H](CO)NC1=O [DX301] (Ac-GDRRACSRDWSGALVWCAGHEPGPEGGGK(5FAM)-NH2; disulfide 6-17) | KD (μM) IgG3 [5]: No binding; Kd [4]: 6.8 ± 4.3 µM
3 | not fully soluble | 22% | 0% | 36% | 43% | 34% | CC(=O)N[C@@H](CO)C(=O)N[C@@H](CCCNC(=N)N)C(=O)N[C@@H](C)C(=O)N[C@H]1CSSC[C@@H](C(=O)N[C@@H](C)C(=O)NCC(=O)N[C@@H](Cc2c[nH]cn2)C(=O)N[C@@H](CCC(=O)O)C(=O)N2CCC[C@H]2C(=O)NCC(=O)N2CCC[C@H]2C(=O)N[C@@H](CCC(=O)O)C(=O)NCC(=O)NCC(=O)NCC(=O)N[C@@H](CCCCN)C(N)=O)NC(=O)[C@H](Cc2c[nH]c3ccccc23)NC(=O)[C@H](C(C)C)NC(=O)[C@H](CC(C)C)NC(=O)[C@H](C)NC(=O)CNC(=O)[C@H](CO)NC(=O)[C@H](Cc2c[nH]c3ccccc23)NC(=O)[C@H](CC(=O)O)NC(=O)[C@H](CCCNC(=N)N)NC(=O)[C@H](CO)NC1=O [DX1139] (Ac-SRACSRDWSGALVWCAGHEPGPEGGGK-NH2; disulfide 4-15) | –
4 | not fully soluble | 20% | 0% | 40% | 43% | 29% | CC(=O)N[C@@H](CCCNC(=N)N)C(=O)N[C@@H](CCCNC(=N)N)C(=O)N[C@@H](C)C(=O)N[C@H]1CSSC[C@@H](C(=O)N[C@@H](C)C(=O)NCC(=O)N[C@@H](Cc2c[nH]cn2)C(=O)N[C@@H](CCC(=O)O)C(=O)N2CCC[C@H]2C(=O)NCC(=O)N2CCC[C@H]2C(=O)N[C@@H](CCC(=O)O)C(=O)NCC(=O)NCC(=O)NCC(=O)N[C@@H](CCCCN)C(N)=O)NC(=O)[C@H](Cc2c[nH]c3ccccc23)NC(=O)[C@H](C(C)C)NC(=O)[C@H](CC(C)C)NC(=O)[C@H](C)NC(=O)CNC(=O)[C@H](CO)NC(=O)[C@H](Cc2c[nH]c3ccccc23)NC(=O)[C@H](CC(=O)O)NC(=O)[C@H](CCCNC(=N)N)NC(=O)[C@H](CO)NC1=O [DX1140] (Ac-RRACSRDWSGALVWCAGHEPGPEGGGK-NH2; disulfide 4-15) | –
5 | not fully soluble | 50% | 0% | 73% | 83% | 80% | CC(=O)NCC(=O)N[C@H]1CSSC[C@@H](C(=O)N[C@@H](C)C(=O)NCC(=O)N[C@@H](Cc2c[nH]cn2)C(=O)N[C@@H](CCC(=O)O)C(=O)N2CCC[C@H]2C(=O)NCC(=O)N2CCC[C@H]2C(=O)N[C@@H](CCC(=O)O)C(=O)NCC(=O)NCC(=O)NCC(=O)N[C@@H](CCCCN)C(N)=O)NC(=O)[C@H](Cc2c[nH]c3ccccc23)NC(=O)[C@H](C(C)C)NC(=O)[C@H](CC(C)C)NC(=O)[C@H](C)NC(=O)CNC(=O)[C@H](CO)NC(=O)[C@H](Cc2c[nH]c3ccccc23)NC(=O)[C@H](CC(=O)O)NC(=O)[C@H](CCCNC(=N)N)NC(=O)[C@H](CO)NC1=O [DX1146] (Ac-GCSRDWSGALVWCAGHEPGPEGGGK-NH2; disulfide 2-13) | –
6 | not fully soluble | 47% | 0% | 74% | 83% | 76% | CC(=O)N[C@H]1CSSC[C@@H](C(=O)N[C@@H](C)C(=O)NCC(=O)N[C@@H](Cc2c[nH]cn2)C(=O)N[C@@H](CCC(=O)O)C(=O)N2CCC[C@H]2C(=O)NCC(=O)N2CCC[C@H]2C(=O)N[C@@H](CCC(=O)O)C(=O)NCC(=O)NCC(=O)NCC(=O)N[C@@H](CCCCN)C(N)=O)NC(=O)[C@H](Cc2c[nH]c3ccccc23)NC(=O)[C@H](C(C)C)NC(=O)[C@H](CC(C)C)NC(=O)[C@H](C)NC(=O)CNC(=O)[C@H](CO)NC(=O)[C@H](Cc2c[nH]c3ccccc23)NC(=O)[C@H](CC(=O)O)NC(=O)[C@H](CCCNC(=N)N)NC(=O)[C@H](CO)NC1=O [DX1147] (Ac-CSRDWSGALVWCAGHEPGPEGGGK-NH2; disulfide 1-12) | Binding properties / profile relative to parent peptide ([9]; human IgG and subtypes): almost identical to those of DX253
7 | – | – | – | – | – | – | O=C(O)c1ccccc1-c1c2cc(F)c(=O)cc-2oc2cc(O)c(F)cc12 [Oregon Green] | pKa of the carboxylic acid group [12]: 4.7
